# Experimental data from ChEMBL document CHEMBL6182876, “Design, synthesis and preliminary structure-activity relationship of 2-iminothiazolidine-4-one derivatives against Schistosoma japonicum in vitro and in vivo” (Eur J Med Chem, 2025).
# Activity calls are given as the source filed them. No cut-off for these calls is given here.
# Experiments:
# Schistosoma japonicum [1] = assay: Anti-schistosomal activity against male adult Schistosoma japonicum assessed as appearance of sensory papillae at 25 uM measured for 72 hrs by SEM analysis; assay type: functional, organism-based
# Schistosoma japonicum [2] = assay: Anti-schistosomal activity against adult Schistosoma japonicum assessed as worm mortality at 100 uM measured at 48 hrs relative to control; assay type: functional
# Schistosoma japonicum [3] = assay: Anti-schistosomal activity against juvenile Schistosoma japonicum infected in ICR mouse assessed as number of worms at 25 mg/kg, ip administered for 7 days; assay type: functional; conditions: time 7 day
# Schistosoma japonicum [4] = assay: Anti-schistosomal activity against adult Schistosoma japonicum assessed as worm mortality at 100 uM measured at 8 hrs relative to control; assay type: functional
# [5] = Acute toxicity in ICR mouse assessed as AST level at 1144 mg/kg, po administered for 7 days; assay type: organism-based; conditions: in vivo, 168 h, time 7 day
# [6] = Acute toxicity in ICR mouse assessed as ALT level at 1144 mg/kg, po administered for 7 days; assay type: organism-based; conditions: in vivo, 168 h, time 7 day
# Schistosoma japonicum [7] = assay: Anti-schistosomal activity against adult Schistosoma japonicum infected in ICR mouse assessed as number of worms at 25 mg/kg, ip administered for 7 days; assay type: functional; conditions: time 7 day
# Schistosoma japonicum [8] = assay: Anti-schistosomal activity against male adult Schistosoma japonicum assessed as appearance of intact tegument surface at 25 uM measured for 72 hrs by SEM analysis; assay type: functional, organism-based
# Schistosoma japonicum [9] = assay: Anti-schistosomal activity against adult Schistosoma japonicum infected in ICR mouse assessed as reduction in worm burden at 25 mg/kg, ip administered for 7 days; assay type: functional; parameters: scale not given: the % may be the effect or the level left; conditions: time 7 day
# [10] = Acute toxicity in ICR mouse assessed as BUN level at 1144 mg/kg, po administered for 7 days; assay type: organism-based; conditions: in vivo, 168 h, time 7 day
# Schistosoma japonicum [11] = assay: Anti-schistosomal activity against female adult Schistosoma japonicum assessed as loss of tegumental architecture at 25 uM measured after 72 hrs by SEM analysis; assay type: functional, organism-based
# Schistosoma japonicum [12] = assay: Anti-schistosomal activity against juvenile Schistosoma japonicum infected in ICR mouse assessed as somatic degeneration at 25 mg/kg, ip administered for 7 days; assay type: functional, organism-based; conditions: time 7.0 day
# Schistosoma japonicum [13] = assay: Anti-schistosomal activity against male adult Schistosoma japonicum assessed as appearance of parallel wrinkles at 25 uM measured for 72 hrs by SEM analysis; assay type: functional, organism-based
# Schistosoma japonicum [14] = assay: Anti-schistosomal activity against male adult Schistosoma japonicum assessed as appearance of degradation of subtegumental matrix at 25 uM measured for 72 hrs by SEM analysis; assay type: functional, organism-based
# Schistosoma japonicum [15] = assay: Anti-schistosomal activity against male adult Schistosoma japonicum assessed as loss of tegumental architecture at 25 uM measured after 72 hrs by SEM analysis; assay type: functional, organism-based
# [16] = Toxicity in ICR mouse infected with Schistosoma japonicum assessed as serum BUN level at 25 mg/kg, ip administered for 7 days; assay type: organism-based; conditions: in vivo, 168 h, time 7 day
# Schistosoma japonicum [17] = assay: Anti-schistosomal activity against adult Schistosoma japonicum assessed as worm mortality at 100 uM measured at 24 hrs relative to control; assay type: functional
# Schistosoma japonicum [18] = assay: Anti-schistosomal activity against male adult Schistosoma japonicum assessed as surface destabilization at 25 uM measured for 72 hrs by SEM analysis; assay type: functional, organism-based
# Schistosoma japonicum [19] = assay: Anti-schistosomal activity against adult Schistosoma japonicum assessed as worm mortality at 100 uM measured at 4 hrs relative to control; assay type: functional
# Schistosoma japonicum [20] = assay: Anti-schistosomal activity against male adult Schistosoma japonicum assessed as complete loss of sucker-associated muscular architecture at 25 uM measured for 72 hrs by SEM analysis; assay type: functional, organism-based
# Schistosoma japonicum [21] = assay: Anti-schistosomal activity against juvenile Schistosoma japonicum infected in ICR mouse assessed as reduction in worm burden at 25 mg/kg, ip administered for 7 days; assay type: functional; parameters: scale not given: the % may be the effect or the level left; conditions: time 7 day
# Schistosoma japonicum [22] = assay: Anti-schistosomal activity against adult Schistosoma japonicum assessed as worm mortality at 100 uM measured at 72 hrs relative to control; assay type: functional
# Schistosoma japonicum [23] = assay: Anti-schistosomal activity against adult Schistosoma japonicum assessed as worm mortality at 100 uM measured at 12 hrs relative to control; assay type: functional
# Schistosoma japonicum [24] = assay: Anti-schistosomal activity against adult Schistosoma japonicum measured at 72 hrs; assay type: functional, organism-based
# [25] = Acute toxicity in ICR mouse assessed as TBIL level at 1144 mg/kg, po administered for 7 days; assay type: organism-based; conditions: in vivo, 168 h, time 7 day
# Schistosoma japonicum [26] = assay: Anti-schistosomal activity against juvenile Schistosoma japonicum infected in ICR mouse assessed as cellular vacuolization at 25 mg/kg, ip administered for 7 days; assay type: functional, organism-based; conditions: time 7.0 day
# Schistosoma japonicum [27] = assay: Anti-schistosomal activity against juvenile Schistosoma japonicum infected in ICR mouse assessed as accumulation of inflammatory cells at 25 mg/kg, ip administered for 7 days; assay type: functional, organism-based; conditions: time 7.0 day
# Schistosoma japonicum [28] = assay: Anti-schistosomal activity against adult Schistosoma japonicum assessed as collapse of sucker musculature at 25 uM measured for 72 hrs by SEM analysis; assay type: functional, organism-based
# Schistosoma japonicum [29] = assay: Anti-schistosomal activity against adult Schistosoma japonicum assessed as mortality by measuring body twisting at 50 uM incubated for 1 to 72 hrs by optical microscopic analysis; assay type: functional, organism-based; conditions: time 1-72 hrs
# [30] = Acute toxicity in po dosed ICR mouse assessed as lethal dose; assay type: organism-based; conditions: in vivo
# Schistosoma japonicum [31] = assay: Anti-schistosomal activity against male adult Schistosoma japonicum assessed as disruption of tegument spines on the oral suckers at 25 uM measured for 72 hrs by SEM analysis; assay type: functional, organism-based
# Schistosoma japonicum [32] = assay: Anti-schistosomal activity against adult Schistosoma japonicum assessed as reduction in oviposition at 50 uM incubated for 72 hrs by optical microscopic analysis; assay type: functional, organism-based
# Schistosoma japonicum [33] = assay: Anti-schistosomal activity against adult Schistosoma japonicum assessed as disintegration of tegument at 25 uM measured for 72 hrs by SEM analysis; assay type: functional, organism-based
# [34] = Acute toxicity in ICR mouse assessed as liver damage at 1144 mg/kg, po administered for 7 days by H and E staining based analysis; assay type: organism-based; conditions: in vivo, 168 h, time 7 day
# Schistosoma japonicum [35] = assay: Anti-schistosomal activity against juvenile Schistosoma japonicum infected in ICR mouse assessed as number of eggs in hepatocyte at 25 mg/kg, ip administered for 7 days; assay type: functional, organism-based; conditions: time 7.0 day
# Schistosoma japonicum [36] = assay: Anti-schistosomal activity against adult Schistosoma japonicum assessed as muscle contractions at 50 uM incubated for 1 to 72 hrs by optical microscopic analysis; assay type: functional, organism-based; conditions: time 1-72 hrs
# Schistosoma japonicum [37] = assay: Anti-schistosomal activity against adult Schistosoma japonicum assessed as darkened body pigmentation at 50 uM incubated for 1 to 72 hrs by optical microscopic analysis; assay type: functional, organism-based; conditions: time 1-72 hrs
smiles,measurement,setting,value
O=C(C1CCCCC1)N1CC(=O)N2CCc3ccccc3C2C1 (stereo not given) [PRAZIQUANTEL],Activity,Schistosoma japonicum [1],Active
same,mortality at 100 µM,Schistosoma japonicum [2],100%
same,Activity,Schistosoma japonicum [3],22%
same,mortality at 100 µM,Schistosoma japonicum [4],100%
same,Activity,[5],57 U/L
same,Activity,[6],136 U/L
same,Activity,Schistosoma japonicum [7],7%
same,Activity,Schistosoma japonicum [8],Active
same,Activity,Schistosoma japonicum [9],86%
same,Activity,[10],7.93 mM
same,Activity,Schistosoma japonicum [11],Active
same,Activity,Schistosoma japonicum [12],Active
same,Activity,Schistosoma japonicum [13],Active
same,Activity,Schistosoma japonicum [14],Active
same,Activity,Schistosoma japonicum [15],Active
same,Activity,[16],22.1 mM
same,mortality at 100 µM,Schistosoma japonicum [17],100%
same,Activity,Schistosoma japonicum [18],Active
same,mortality at 100 µM,Schistosoma japonicum [19],100%
same,Activity,Schistosoma japonicum [20],Active
same,Activity,Schistosoma japonicum [21],49%
same,mortality at 100 µM,Schistosoma japonicum [22],100%
same,mortality at 100 µM,Schistosoma japonicum [23],100%
same,IC50,Schistosoma japonicum [24],43.8 µM
same,Activity,[25],3.76 µM
CCOC(=O)/C=C1\S/C(=N\c2ccccc2Cl)N(CCCN2CCN(C)CC2)C1=O,mortality at 100 µM,Schistosoma japonicum [2],100%
same,Activity,Schistosoma japonicum [3],30%
same,mortality at 100 µM,Schistosoma japonicum [4],40%
same,Activity,Schistosoma japonicum [7],37%
same,Activity,Schistosoma japonicum [9],26%
same,Activity,[16],7.9 mM
same,mortality at 100 µM,Schistosoma japonicum [17],100%
same,mortality at 100 µM,Schistosoma japonicum [19],10%
same,Activity,Schistosoma japonicum [21],30%
same,mortality at 100 µM,Schistosoma japonicum [22],100%
same,mortality at 100 µM,Schistosoma japonicum [23],100%
same,IC50,Schistosoma japonicum [24],30.4 µM
CCOC(=O)/C=C1\S/C(=N\c2ccccc2)N(Cc2ccccc2)C1=O,mortality at 100 µM,Schistosoma japonicum [2],0%
same,mortality at 100 µM,Schistosoma japonicum [4],0%
same,mortality at 100 µM,Schistosoma japonicum [17],0%
same,mortality at 100 µM,Schistosoma japonicum [19],0%
same,mortality at 100 µM,Schistosoma japonicum [22],0%
same,mortality at 100 µM,Schistosoma japonicum [23],0%
same,IC50,Schistosoma japonicum [24],> 100 µM
CCOC(=O)/C=C1\S/C(=N\c2ccccc2)N(CCCN(C)C)C1=O,mortality at 100 µM,Schistosoma japonicum [2],40%
same,mortality at 100 µM,Schistosoma japonicum [4],0%
same,mortality at 100 µM,Schistosoma japonicum [17],10%
same,mortality at 100 µM,Schistosoma japonicum [19],0%
same,mortality at 100 µM,Schistosoma japonicum [22],100%
same,mortality at 100 µM,Schistosoma japonicum [23],0%
same,IC50,Schistosoma japonicum [24],97.7 µM
CCOC(=O)/C=C1\S/C(=N\c2ccccc2)N(CCN(CC)CC)C1=O,mortality at 100 µM,Schistosoma japonicum [2],10%
same,mortality at 100 µM,Schistosoma japonicum [4],0%
same,mortality at 100 µM,Schistosoma japonicum [17],10%
same,mortality at 100 µM,Schistosoma japonicum [19],0%
same,mortality at 100 µM,Schistosoma japonicum [22],30%
same,mortality at 100 µM,Schistosoma japonicum [23],0%
same,IC50,Schistosoma japonicum [24],> 100 µM
CCOC(=O)/C=C1\S/C(=N\c2ccc(C(F)(F)F)cc2)N(CCCN2CCN(C)CC2)C1=O,Activity,Schistosoma japonicum [26],Active
same,Activity,Schistosoma japonicum [1],Active
same,mortality at 100 µM,Schistosoma japonicum [2],100%
same,Activity,Schistosoma japonicum [3],32%
same,Activity,Schistosoma japonicum [27],Active
same,mortality at 100 µM,Schistosoma japonicum [4],50%
same,Activity,[5],41 U/L
same,Activity,Schistosoma japonicum [28],Active
same,Activity,Schistosoma japonicum [29],Active
same,Activity,[6],142 U/L
same,Activity,Schistosoma japonicum [7],24%
same,LD50,[30],1400 mg/kg
same,Activity,Schistosoma japonicum [8],Active
same,Activity,Schistosoma japonicum [31],Active
same,Activity,Schistosoma japonicum [9],52%
same,Activity,[10],9.6 mM
same,Activity,Schistosoma japonicum [32],Active
same,Activity,Schistosoma japonicum [11],Active
same,Activity,Schistosoma japonicum [33],Active
same,Activity,Schistosoma japonicum [13],Active
same,Activity,Schistosoma japonicum [14],Active
same,Activity,Schistosoma japonicum [15],Active
same,Activity,[34],Non-toxic
same,Activity,[16],7.22 mM
same,mortality at 100 µM,Schistosoma japonicum [17],100%
same,Activity,Schistosoma japonicum [35],Active
same,Activity,Schistosoma japonicum [18],Active
same,mortality at 100 µM,Schistosoma japonicum [19],20%
same,Activity,Schistosoma japonicum [20],Active
same,Activity,Schistosoma japonicum [21],26%
same,mortality at 100 µM,Schistosoma japonicum [22],100%
same,mortality at 100 µM,Schistosoma japonicum [23],100%
same,Activity,Schistosoma japonicum [36],Active
same,IC50,Schistosoma japonicum [24],25.3 µM
same,Activity,Schistosoma japonicum [37],Active
same,Activity,[25],3.24 µM
CCOC(=O)/C=C1\S/C(=N\c2ccccc2)N(CCCN2CCN(C)CC2)C1=O,mortality at 100 µM,Schistosoma japonicum [2],100%
same,mortality at 100 µM,Schistosoma japonicum [4],0%
same,mortality at 100 µM,Schistosoma japonicum [17],10%
same,mortality at 100 µM,Schistosoma japonicum [19],0%
same,mortality at 100 µM,Schistosoma japonicum [22],100%
same,mortality at 100 µM,Schistosoma japonicum [23],0%
same,IC50,Schistosoma japonicum [24],75.6 µM
CCOC(=O)/C=C1\S/C(=N\c2cccc(Cl)c2)N(CCCN2CCN(C)CC2)C1=O,mortality at 100 µM,Schistosoma japonicum [2],100%
same,mortality at 100 µM,Schistosoma japonicum [4],30%
same,mortality at 100 µM,Schistosoma japonicum [17],100%
same,mortality at 100 µM,Schistosoma japonicum [19],10%
same,mortality at 100 µM,Schistosoma japonicum [22],100%
same,mortality at 100 µM,Schistosoma japonicum [23],100%
same,IC50,Schistosoma japonicum [24],41.2 µM
CCOC(=O)/C=C1\S/C(=N\c2cc(F)ccc2F)N(CCCN2CCN(C)CC2)C1=O,mortality at 100 µM,Schistosoma japonicum [2],100%
same,mortality at 100 µM,Schistosoma japonicum [4],0%
same,mortality at 100 µM,Schistosoma japonicum [17],30%
same,mortality at 100 µM,Schistosoma japonicum [19],0%
same,mortality at 100 µM,Schistosoma japonicum [22],100%
same,mortality at 100 µM,Schistosoma japonicum [23],0%
same,IC50,Schistosoma japonicum [24],31.2 µM
